{"source": "patent US20250082752A1", "about": "“COMPOUNDS, TARGETS, AND METHODS FOR MODULATING LYTIC GRANULE CONVERGENCE IN CYTOTOXIC CELLS TO PROMOTE BYSTANDER KILLING IN CELLULAR THERAPIES” (THE TRUSTEES OF COLUMBIA UNIVERSITY IN THE CITY OF NEW YORK, priority 2022, published 2025)", "key": {"YTS cells [1]": {"system": "YTS cells", "experiment": "Golgi fragmentation and granule dispersion in LPA-stimulated YTS cells", "type": "cell-based", "conditions": "20 μM LPA for two hours, sodium salt", "experimental": "One way to induce the Golgi outpost formation through elongation and fission, is using LPA, which is predicted to activate a pathway dependent on transforming protein RhoA and effectively induce the formation of Golgi Outpost. […] The cells were also tested for Cr-51 (FIG. 14C). […] This dispersion was thus increased in quantity and spread on the GCC2 KO cells."}, "YTS cells [2]": {"system": "YTS cells", "experiment": "CD107a degranulation of treated YTS cells after conjugation with 721.221 target cells", "type": "cell-based", "conditions": "5 days, Centrinone 5 nM or CFI400495 50 nM", "experimental": "CD107a (also known as LAMP-1) is the standard to measure the process of degranulation. The more CD107a is expressed on the surface of the cell after stimulation, the more granules have been released. This is limited to the immunological synapse, in part secondary to the convergence process. CD107a upregulation is measured via flow cytometry after PMA/lonomycin activation and can be measured following target cell conjugation. […] The latter requires synapse formation and engagement of receptors for downstream activation signaling. Differences in results between these two approaches (target cell conjugation versus PMA/lonomycin) map the candidate's impact to early (synapse formation and signaling) or late (mechanics of) degranulation.\n(§1) Centrinone and CFI400495 are high affinity and selective PLK4 inhibitors that induce depletion of the centrosome and cell cycle arrest. YTS cells were treated for 5 days with Centrinone 5 nM or CFI400495 50 nM. […] For this experiment, 5×10^5 cells/ml YTS cells were incubated during 5 days Centrinone 5 nM or CFI400495 50 nM, every 24 hours the media were replaced with fresh media containing similar amounts of the drug. On day 5, cells were assessed by microscopy for gamma-tubulin or alpha-tubulin."}, "YTS cells [3]": {"system": "YTS cells", "experiment": "Number of MTOC (alpha-tubulin hyper densities) in YTS cells treated with PLK4 inhibitors", "type": "cell-based", "conditions": "5 days, Centrinone 5 nM or CFI400495 50 nM", "experimental": "as §1"}, "YTS cells [4]": {"system": "YTS cells", "experiment": "Confocal microscopy of granule dispersion in YTS cells after Centrinone or CFI400495", "type": "cell-based", "conditions": "YTS cells after treatment with Centrinone or CFI400495", "experimental": "as §1"}, "NK cell [5]": {"system": "NK cell", "experiment": "Durability/reversibility of deconvergence after the inhibitor is removed from media", "type": "cell-based", "conditions": "NK cell activation on activating glass surface at different times after removal from media", "experimental": "(§2) YTS cells were treated with DMSO or one of three different dynein inhibitors (Ciliobrevin-D, Dynapyrazole-A, or Compound 3016) and then incubated on an activating glass surface for 30 min. Cells were fixed, stained for a-tubulin, F-actin, perforin, and DNA (DAPI), and imaged via spinning disc confocal microscopy. Examples of individual cells (top) showing all stains and a broader field (bottom) at lower magnification showing only perforin to give an impression of the degree of granule convergence in a field of cells (FIG. 10A). […] Points show mean+SD of 3 independent experiments measuring >20 cells each.\nReversibility time for convergence is determined by activating small molecule inhibitor pre-treated NK cells on anti-NKp30/anti-CD18-coated or anti-CD28/anti-CD18 glass surfaces in the absence of the compound of interest. In short-term live-cell experiments, cells are labeled with lysotracker and fluorescent protein-conjugated tubulin; for longer term experiments, the more durable lytic granule label, LAMP1-mApple, is used. The efficiency of non-directional degranulation will be measured with the previously disclosed LAMP1-pHluorin cell line, which marks the lytic granule pH change that accompanies degranulation. […]"}, "YTS cells [6]": {"system": "YTS cells", "experiment": "Lytic granule convergence/dispersion in dynein inhibitor-treated YTS cells on an activating glass surface (confocal microscopy)", "type": "cell-based", "conditions": "dynein inhibitor vs DMSO, activating glass surface 30 min", "experimental": "as §2\nThis work served as proof-of-concept that influencing positional degranulation can be used to harness the NK cell lytic machinery.\nTo identify the best candidates to control lytic granule positioning, a high throughput screen (HTS) for activation-induced lytic granule convergence was developed. This is a novel method that utilizes a simple shape-based approach (a grid based on the a-tubulin defined NK cell footprint and Euclidean distance from the MTOC) to generate an estimated mean granule distance (eMGD) from the MTOC (FIGS. 11A-11C). This approach allows us to quickly screen large numbers of molecular candidates. MGD will be measured in 3D in fixed NK cells activated on an anti-NKp30/anti-CD18 or anti-CD28/anti-CD18 coated glass surface over a range of activation times, conditions, and NK cell types. Cells will be stained to identify the MTOC (for example, pericentrin) and lytic granules (mature perforin). The measured MGD is an indicator of convergence."}, "NK cell [7]": {"system": "NK cell", "conditions": "previous work, cited from earlier work"}, "NK cells": {"system": "NK cells", "experiment": "Lytic granule dispersion in pretreated NK cells seeded on surfaces coated with activating antibodies", "type": "cell-based", "conditions": "NK cells pretreated at 5 μM for 30 min", "from_the_text": "FIGS. 59B-59E are magnified image of marked areas in FIG. 59A focusing on cells with dispersed granule. Perforin staining is shown in green, and alpha-tubulin is staining is shown in red.\nFIGS. 60B-60E are magnified image of marked areas in FIG. 60A focusing on cells with dispersed granule. The position of the granules is indicated by perforin staining.\nFIGS. 61B-61E are magnified image of marked areas in FIG. 61A focusing on cells with dispersed granule. The position of the granules is indicated by perforin staining.\nNK cells were pretreated with N-{1-[(4-chlorophenyl)methyl]piperidin-4-yl}prop-2-enamide (FIG. 56) at […] for 30 min. The treated NK cells were seeded onto surfaces coated with activating antibodies.\nNK cells were pretreated with 1-(prop-2-enamido)-N-[(thiophen-2-yl)methyl]cyclohexane-1-carboxamide (FIG. 57) at 5 μM for 30 min. The treated NK cells were seeded onto surfaces coated with activating antibodies.\nNK cells were pretreated 1-[3-(4-fluorophenyl) prop-2-enoyl]-4-hydroxypyrrolidine-2-carboxylic acid (FIG. 58) at 5 μM for 30 min. The treated NK cells were seeded onto surfaces coated with activating antibodies."}, "YTS cells [8]": {"system": "YTS cells", "experiment": "Mean granule distance (MGD) and automated estimated MGD (eMGD) from the MTOC in activated YTS cells", "type": "cell-based", "conditions": "YTS cells activated on glass via CD18/CD28 for 30 minutes, p<0.01", "from_the_text": "FIGS. 11A-11H depict exemplary results related to mean granule distance (MGD) and automated estimated mean granule distance (eMGD). FIG. 11A depicts an exemplary high-resolution confocal imaging of lytic granules (labeled by perforin) and tubulin, which allows for automated intensity threshold-based identification of granules as shown in FIG. 11B (outlines indicate for granules and the microtubule-organizing center (MTOC)). FIG. 11C depicts the equation for calculating […] using x and y coordinates of each granule relative to the MTOC. […] FIG. 11E is an exemplary image of a fixed NK cell from the screen (labeled with perforin and tubulin) to which the Euclidean method for assessing granule localization relative to a total cell, tubulin-defined footprint of FIG. 11F can be applied. eMGD is then calculated using a Matlab script and the formula shown in FIG. 11G. […]\nTo identify the best candidates to control lytic granule positioning, a high throughput screen (HTS) for activation-induced lytic granule convergence was developed. […] MGD will be measured in 3D in fixed NK cells activated on an anti-NKp30/anti-CD18 or anti-CD28/anti-CD18 coated glass surface over a range of activation times, conditions, and NK cell types. […] The measured MGD is an indicator of convergence. […]"}, "YTS cells [9]": {"system": "YTS cells", "experiment": "Granule distance to MTOC in Dynapyrazole A-treated YTS cells on a CD28/CD18 activating surface", "type": "cell-based", "conditions": "5 μM for 30 minutes, washed", "experimental": "(§3) YTS cells are treated with 5 μM of Dynapyrazole A for 30 minutes, then washed twice with culture media. Then cells are stimulated either with 721.221 target cells, K562 target cells, or with an activating surface (coverslip coated with anti CD18 and/or anti CD28)."}, "bystander K562 cells": {"system": "bystander K562 cells", "experiment": "Bystander killing by Dynapyrazole A-pretreated YTS cells", "type": "cell-based", "conditions": "YTS cells pretreated with 5 μM for 30 minutes", "from_the_text": "The graph is representative of three independently performed biological repeats.\nTo assess tumor cell and bystander killing, TheCOS comprises NK cell lines, tumor cell targets, and NK-resistant tumor cell bystanders. LAMP1-mApple-pHluorin-expressing NK cell lines enable visualization of granules (mApple) and degranulation events (pHluorin transition). mTurquoise2 mark susceptible tumor cells, and Citrine mark bystander cells. SYTOX deep red is included in the hydrogel to identify the nuclei of dying cells. A cell positive for Turquoise and SYTOX fluorescence denote a dying tumor cell, whereas a cell positive for Citrine and SYTOX indicate a dying bystander cell. 1×10^5 target tumor cells and 1×10^5 NK cells (for an initial 1:1 tumor to effector ratio)+/−1×10^6 bystander cells are deposited into separate thermally responsive hydrogel layers and then encased in thermally stable hydrogel. This sandwich is then deposited the into our imaging chamber. Prewarmed media is added to collapse the hydrogel layers.\nas §3"}}, "note": "“Also recorded” adds a separate entry of the source."}
{"compound": "1-Oleoyl lysophosphatidic acid sodium salt [LPA]", "values": [{"measurement": "Golgi fragmentation", "setting": "YTS cells [1]", "result": "increase in Golgi fragments; also recorded: Golgi fragmentation"}, {"measurement": "granule dispersion / convergence", "setting": "YTS cells [1]", "result": "blocks convergence; also recorded: granule dispersion"}]}
{"compound": "COc1ccc2c(c1)[C@]1(C[C@H]1c1ccc3c(/C=C/c4ccc(CN5C[C@@H](C)O[C@@H](C)C5)cc4)n[nH]c3c1)C(=O)N2.O=C(O)/C=C/C(=O)O", "note": "[CFI400495, Spiro[cyclopropane-1,3′-[3H]indol]-2′(1′H)-one, 2-[3-[(E)-2-[4-[[(2R,6S)-2,6-dimethyl-4-morpholinyl]methyl]phenyl]ethenyl]-1H-indazol-6-yl]-5′-methoxy-, (1R,2S)-, (2E)-2-butenedioate (1:1)]", "values": [{"measurement": "degranulation (CD107a expression)", "setting": "YTS cells [2]", "result": "increases degranulation"}, {"measurement": "number of MTOC (alpha Tubulin hyper densities)", "setting": "YTS cells [3]", "result": "increase number of mTOC"}, {"measurement": "granule dispersion (confocal microscopy images)", "setting": "YTS cells [4]", "result": "more disperse granules"}]}
{"compound": "N#CC(C(=O)c1ccc(Cl)cc1Cl)=C1NC(=O)c2ccc(Cl)cc2N1", "note": "[Ciliobrevin D, 2-(7-chloro-4-oxo-3,4-dihydroquinazolin-2 (1H)-ylidene)-3-(2,4-dichlorophenyl)-3-oxopropanenitrile]", "values": [{"measurement": "durability of deconvergence after inhibitor removed from media", "setting": "NK cell [5]", "result": "Neither inhibitor, however, promotes sustained deconvergence"}, {"measurement": "durability of deconvergence after inhibitor removed from media", "setting": "NK cell [5]; listed as CIL-D", "result": "quickly reversible"}, {"measurement": "lytic granule convergence / dispersion", "setting": "YTS cells [6]", "result": "lytic granule dispersion"}, {"measurement": "lytic granule convergence / dispersion", "setting": "YTS cells [6]; listed as CIL-D", "result": "highly effective in preventing lytic granule convergence"}, {"measurement": "killing of bystander cells", "setting": "NK cell [7]; UGATm and other single cell assays", "result": "promoted killing of bystander cells"}, {"measurement": "inhibition of lytic granule convergence (previously used)", "setting": "NK cell [7]", "result": "inhibit lytic granule convergence"}]}
{"compound": "O=C(O)C1CC(O)CN1C(=O)C=Cc1ccc(F)cc1", "note": "(stereo not shown) [Compound 3977, 1-[3-(4-fluorophenyl)prop-2-enoyl]-4-hydroxypyrrolidine-2-carboxylic acid]", "values": [{"measurement": "lytic granule dispersion", "setting": "NK cells", "result": "induce lytic granule dispersion; also recorded: lytic granule dispersion induced"}]}
{"compound": "C=CC(=O)NC1CCN(Cc2ccc(Cl)cc2)CC1", "note": "[Compound 5814, N-{1-[(4-chlorophenyl)methyl]piperidin-4-yl}prop-2-enamide]", "values": [{"measurement": "lytic granule dispersion", "setting": "NK cells", "result": "induce lytic granule dispersion; also recorded: lytic granule dispersion induced"}]}
{"compound": "C=CC(=O)NC1(C(=O)NCc2cccs2)CCCCC1", "note": "[Compound 7779, 1-(prop-2-enamido)-N-[(thiophen-2-yl)methyl]cyclohexane-1-carboxamide]", "values": [{"measurement": "lytic granule dispersion", "setting": "NK cells", "result": "induce lytic granule dispersion; also recorded: lytic granule dispersion induced"}]}
{"compound": "N#Cc1c(C2(c3ccc(Cl)cc3)CC2)nn2c1[nH]c(=O)c1cc(I)ccc12", "note": "[Dynapyrazole A, 2-[1-(4-Chlorophenyl)cyclopropyl]-4,5-dihydro-7-iodo-5-oxopyrazolo[1,5-a]quinazoline-3-carbonitrile]", "values": [{"measurement": "estimated mean granule distance (eMGD), change vs DMSO", "setting": "YTS cells [8]; GE InCell Analyzer", "result": "Increase"}, {"measurement": "mean granule distance (MGD), change vs DMSO", "setting": "YTS cells [8]; confocal microscope", "result": "Increase"}, {"measurement": "lytic granule dispersion (granule distance to MTOC)", "setting": "YTS cells [9]", "result": "induces lytic granule dispersion"}, {"measurement": "lytic granule dispersion (granule distance to MTOC)", "setting": "YTS cells [9]; listed as Dynapyrazole-A", "result": "high lytic granule dispersion"}, {"measurement": "killing of bystander K562 cells", "setting": "bystander K562 cells", "result": "kill bystander K562 cells"}, {"measurement": "killing of bystander K562 cells", "setting": "bystander K562 cells; listed as Dynapyrazole-A", "result": "kill bystander K652 cells"}, {"measurement": "lytic granule convergence / dispersion", "setting": "YTS cells [6]; listed as Dynapyrazole-A", "result": "lytic granule dispersion"}, {"measurement": "lytic granule convergence / dispersion", "setting": "YTS cells [6]; listed as dynapyrazole-A", "result": "highly effective in preventing lytic granule convergence"}]}
